Usually EC50 stands for the concentration at which the effect is half-maximal. In general, pIC50 refers to the negative decadic logarithm of the IC50, by convention in mol/L. A low value points to a large IC50.

The structures appear in SMILES notation. pIC50: −log10 of the molar value. ≈ marks a conversion by molar mass, not a printed value.

These results are taken from US5723461A, “Quinoxalines, a process for their preparation and their use” (Hoechst Aktiengesellschaft, priority 1994, dated 1998).

The test system of assay [1] is HIV. Briefly: Testing of preparations against HIV in cell culture (T-cell culture assay). Format: cell-based. The following applies: Human immunodeficiency virus 1, 72 h, HIV-infected lymphocytes, 3 days at 37° C., lowest concentration at which no giant cells occurred, read-out: MIC EC50. The procedure: Testing of preparations against HIV in cell culture
Description of the method:
Complete medium additionally contains 20% fetal calf serum and 40 IU/ml recombinant interleukin 2.
Lymphocytes, which have been isolated from fresh donor blood by means of Ficoll® gradient centrifugation, are cultured, for 36 hours at 37° C. and under 5% CO2, in complete medium which additionally contains […] phytohemagglutinin (Wellcome). After 10% DMSO has been added, the cells are frozen at a cell density of 5×10^6 and stored in liquid nitrogen. For the experiment, the cells are thawed, washed in the RPMI medium and cultured for 3 to 4 days in the complete medium.
The test preparations were dissolved in DMSO at a concentration of 16.7 mg/ml, and these solutions were diluted with complete medium to a concentration of 1 mg/ml. 0.4 ml of medium was initially introduced into 24-well multiwell plates. After 0.1 ml of the dissolved preparation had been added to the upper row of the plate, a geometric dilution series was produced by transferring 0.1 ml on each occasion. Preparation-free controls contained 0.4 ml of complete medium containing 0.5% DMSO.
Lymphocyte cultures having a cell count of 5×10^5 cells/ml were infected by adding a 1/50 volume of the supernatant from HIV-infected lymphocyte cultures. The titer of these culture supernatants was determined by end-point dilution to be 1-5×10^6 infectious units/ml. After having been incubated at 37° C. for 30 min, the infected lymphocytes were centrifuged off and taken up once again in the same volume of medium. 0.6 ml of this cell suspension was added to each of the wells in the test plate. The assay mixtures were incubated at 37° C. for 3 days.
The infected cell cultures were examined under the microscope for the presence of giant cells, which are indicative of active viral replication in the culture. The lowest preparation concentration at which no giant cells occurred was determined and taken to be the inhibitory concentration against HIV. As a control, the supernatants from the culture plates were assayed for the presence of HIV antigen using an HIV antigen test in accordance with the manufacturer's (Organon) instructions.

The target in assay [2] is T1, HIV reverse transcriptase (Human immunodeficiency virus type 1 group M subtype B, UniProt P04585).
T1 construct: purchased HT Biotechnology Ltd., Cambridge, UK; host or cells: E. coli
Description: Inhibition of HIV reverse transcriptase (scintillation proximity assay). In kind it is biochemical. Conditions: Reverse transcriptase assay (SPA), 60 min, 37° C. The method, then: Examination of the substances for their ability to inhibit HIV reverse transcriptase
The activity of the reverse transcriptase (RT) was determined using a scintillation proximity assay (SPA).
The reagent kit for the RT SPA was obtained from Amersham/Buchler (Braunschweig). The RT enzyme (derived from HIV and cloned in E. coli) was obtained from HT Biotechnology Ltd., Cambridge, UK.
The test was carried out in accordance with the manufacturer's (Amersham) methods manual, with the following modifications:
Bovine serum albumin was added to the assay buffer to a final concentration of 0.5 mg/ml.
The test was carried out in Eppendorf tubes using an assay mixture volume of 100 μl.
The manufacturer's RT concentrate (5000 U/ml) was diluted to an activity of 15 U per ml using 20 mM tris-HCl buffer, pH 7.2, 30% glycerol.
The assay mixtures were incubated for 60 min (37° C.).
After the reaction had been stopped and "developed" with the bead suspension, 130 μl of assay mixture were transferred into 4.5 ml of 10 mM tris-HCl buffer, pH 7.4, 0.15M NaCl and the tritium activity was measured in a β-counter.
In order to carry out a preliminary test of their inhibitory activity, the substances were dissolved in DMSO (stock solution, c=1 mg/ml) and tested when diluted 10^-1, 10^-2, 10^-3 etc. in DMSO.
In order to determine IC50 values, the stock solutions of inhibitor were further diluted in 50 mM tris-HCl buffer, pH 8, and tested at suitable concentrations.
The concentration associated with 50% inhibition of the enzyme was ascertained from the plot of RT activity against log Cinh.

In the case of `C=C(C)OC(=O)N1c2cc(Cl)ccc2NC(=S)[C@@H]1C` [Example 140d], in assay [1], the EC50 was found to be 0.01 µg/mL (≈ 0.0337 µM). The pIC50 in assay [2] is 7.04.

Turning to `CCC(C)OC(=O)N1c2cc(OC)ccc2NC(=S)[C@@H]1CSC` (stereo partly shown) [Example 140f], the EC50 in assay [1] stood at 0.008 µg/mL (≈ 0.0226 µM). The pIC50 in assay [2] is 7.27.

Take `COc1ccc2c(c1)N(C(=O)OCC(C)C)[C@@H](CSC)C(=S)N2` [Example 140g]: the EC50 in assay [1] amounted to 0.04 µg/mL (≈ 0.113 µM). Besides, the pIC50 in assay [2] is 7.32.

As for `CC[C@H]1C(=S)Nc2ccc(F)cc2N1C(=O)OC` [Example 140h], the EC50 in assay [1] turned out to be 0.01 µg/mL (≈ 0.0373 µM). In assay [2], the pIC50 is 7.53.

With `CCCCOC(=O)N1c2cc(F)ccc2NC(=S)[C@@H]1CC` [Example 140i], the EC50 in assay [1] stood at 0.01 µg/mL (≈ 0.0322 µM). The compound further gave a pIC50 in assay [2] of 7.15.

Consider `CC[C@H]1C(=S)Nc2ccc(F)cc2N1C(=O)OCC(C)C` [Example 140j], for which, in assay [1], the EC50 was 0.01 µg/mL (≈ 0.0322 µM). Moreover, in assay [2], the pIC50 is 7.32.

Take `CCC(C)OC(=O)N1c2cc(F)ccc2NC(=S)[C@@H]1CC` (stereo partly shown) [Example 140k]: the EC50 in assay [1] was 0.008 µg/mL (≈ 0.0258 µM). The pIC50 in assay [2] was 7.29.

On to `COC[C@H]1C(=S)Nc2ccc(F)cc2N1C(=O)OC(C)C` [Example 140l], for which, in assay [1], the EC50 was 0.008 µg/mL (≈ 0.0256 µM). In addition, the pIC50 in assay [2] was 7.15.
